# Measurements taken from publication PMC8819291, “Adaptively evolved human oral actinomyces‐sourced defensins show therapeutic potential” (EMBO Molecular Medicine, 2021).
# Where a SMILES comes first, the peptide text is derived from it.
# Experiments:
# [1] = system: fresh erythrocytes from the female ICR mice; test: Hemolysis assay; format: cell-based, Mus musculus; settings: 25 μM
# Method: Hemolytic activity of peptides against fresh erythrocytes from the female ICR mice (Mus musculus) (25 g, 6 weeks of age) was assayed according to the standard method (Zhu et al, [2012]). Peptides were diluted with 0.9% NaCl to the indicated concentration. The percentage of hemolysis is determined as (A pep–A blank)/(A tot–A blank) × 100, in which “A” represents absorbance measured at 570 nm. A blank and A pep were evaluated in the absence or presence of peptides. One hundred percent hemolysis (A tot) was obtained in the presence of 1% Triton X‐100.
# [2] = system: BM cells (Bacillus megaterium); test: Scanning electron microscope observation of cell deformation; format: cell-based; settings: 10 × C L, 37°C, 90 min
# Method: After centrifugation, bacterial pellets were fixed with 2.5% glutaraldehyde for 1 h, followed by washing three times with PBS buffer (pH 7.3). Dehydration was carried out with a series of graded ethanol solutions. Cells were then dried by BAL‐TEC CPD‐030 critical point dryer (Bal‐Tec AG, Balzers, Liechtenstein) before being mounted on carbon tape and sputtered with a gold coating (BAL‐TEC SCD005). Images were visualized in FEI QUANTA 450.
# [3] = system: MRSA P1374; test: Cytoplasmic accumulation of UMP; format: cell-based, Staphylococcus aureus; settings: 20 × C L, 30 min; RP-HPLC, UV 260 nm
# Method: To analyze the cytoplasmic nucleotide pool, we carried out the cytoplasmic UMP accumulation experiment according to the literature (Brötz et al, [1997]) with some modifications. MRSA P1374 cells were grown in 40‐ml broth medium at 37°C to an OD600 of 0.5. The culture was supplemented with 130 μg/ml chloramphenicol. […] After 30 min of incubation, UMP was extracted from the harvested cells by stirring them into boiling water. The suspension was then centrifuged (43,000 g, 60 min) at 4°C and the supernatant was lyophilized and dissolved in 400 μl of 50 mM ammonium acetate (pH 5.2) and adjusted to pH 2.0 with acetic acid. After acidification, the supernatant was fractionated by RP‐HPLC on Hypersil ODS (250 × 4.6 mm; Thermo Scientific) and UMP was eluted from the column with a linear gradient from 0 to 40% methanol in 50 mM NH4Ac (pH 5.2) within 40 min with a flow rate of 1 ml/min. UV absorbance was monitored at 260 nm. UMP was identified by ultraperformance liquid chromatography–high resolution mass spectrometry (UPLC‐HRMS) and MALDI‐TOF. Both methods yielded consistent results.
# [4] = Circular dichroism spectroscopy with UMP; format: binding; settings: 50 mM NH4OAc, room temperature
# Method: The spectra were measured at room temperature from 300 to 200 nm by using a quartz cell of 1.0 mm thickness. Data were collected at 1‐nm intervals with a scan rate of 2 nm/s.
# [5] = Bioaffinity ESI-MS with UMP; format: binding, Staphylococcus aureus; settings: 25 mM ammonium acetate (pH5.2)
# Method: All components for interactions were dissolved in 25 mM ammonium acetate (pH5.2). Electrospray spectra were recorded with Waters SynaptG2‐Si mass spectrometer (Waters, Manchester, UK) and measurements were performed with positive ESI in resolution mode. Ions were scanned in a mass range of 500–2,000 m/z with the following conditions: the capillary voltage at 1,500 V; the cone voltage at 40 V; the source block temperature at 30°C. Spectra were recorded and processed by the software Masslynx4.1 (Waters, Manchester, UK).
# [6] = system: HL‐60; test: Cytotoxicity assay (CCK-8); format: cell-based, human; settings: 72 h
# Method: Cells were cultured at 37°C in 5% CO2: 95% air incubator in Minimum Essential Medium (MEM) supplemented with 10% (v/v) fetal bovine serum (FBS). Cells were seeded at a density of 7 × 10^3 cells per well in 96‐well plates and incubated for 24 h. Media were then replaced with 200 μl of media containing various concentrations of peptides. The cells were incubated for 72 h and cytotoxicity was assessed with CCK‐8 Kits (Dojindo Molecular Technologies, Tokyo, Japan). Absorbance was detected at 450 nm with the TECAN Infinite M200 microplate reader (Tecan, Durham, USA).
# [7] = system: A549 cells; test: Peptide-induced IL-8 release (ELISA); format: cell-based, human; settings: 24 h
# Method: (§1) A549 and HL‐60 cells were purchased from the Cell Resource Center of the Chinese Academy of Medical Sciences (Beijing, China). They were tested for mycoplasma contamination with the Mycoplasma Detection Kit (Solarbio, China) and only negative cultures were used in our experiments. The cells were cultured in complete Dulbecco’s Modified Eagle Medium (DMEM) supplemented with 10% fetal bovine serum (FBS), penicillin (100 units/ml), and streptomycin ([…]) at 37°C in 5% CO2. The culture medium was changed every 2 days. Cells were passaged every 4–5 days with 0.25% trypsin (Gibco, USA). For enzyme‐linked immunosorbent assay (ELISA) (Hara et al, [2008]), A549 or HL‐60 cells were seeded in six‐well plates at a density of 1 × 10^5 cells/well and were incubated at 37°C in 5% CO2 overnight. Medium was aspirated and replaced with fresh complete DMEM supplemented with 10% FBS or serum‐free medium, both containing different concentrations of polypeptides for 24 h. Then, the supernatants were harvested for quantification of the IL‐8 amount in A549 by the Human CXCL8/IL‐8 Quantikine ELISA Kit (R&D Systems Inc., Minneapolis, MN, USA) and the MCP‐1 amount in HL‐60 by the Human MCP‐1 ELISA Kit (Boster Biological Technology Co., Ltd, Wuhan, China) as per the manufactures’ instructions.
# [8] = system: HL‐60 cells; test: Peptide-induced MCP-1 release (ELISA); format: cell-based, human; settings: 24 h
# Method: as §1
# [9] = system: SP D39; test: Mouse lung infection model
# Method: To this end, ICR female mice (30 g each mouse; 9–10 weeks of age) were anesthetized with 1.25% 2,2,2‐Tribromoethanol (Avertin) (Macklin, Shanghai, China) and hung by their front teeth on a steel wire. Then, they were inoculated intranasally with 10–20 µl bacterial suspension of SP D39 of fresh overnight culture (1.5 × 10^6 CFU per mouse) and then were removed from the wire to their cages. A control group of untreated mice was included. […] Mice were treated with penicillin as a positive control. At 48 h post‐infection, the mice were sacrificed and lungs removed and homogenized in 0.9% saline. Colony counts from lung homogenates were determined and the total number of colonies/lungs per mouse was calculated. Schematic representation is provided in Appendix Fig S16B.
# [10] = FBS-containing medium, 25 μg/mL, replicate 1
# [11] = FBS-containing medium, 25 μg/mL, replicate 2
# [12] = FBS-containing medium, 25 μg/mL, replicate 3
# [13] = FBS-containing medium, 50 μg/mL, replicate 1
# [14] = FBS-containing medium, 50 μg/mL, replicate 2
# [15] = FBS-containing medium, 50 μg/mL, replicate 3
# [16] = FBS-containing medium, 100 μg/mL, replicate 1
# [17] = FBS-containing medium, 100 μg/mL, replicate 2
# [18] = FBS-containing medium, 100 μg/mL, replicate 3
# [19] = Serum-Free medium, 25 μg/mL, replicate 1
# [20] = Serum-Free medium, 25 μg/mL, replicate 2
# [21] = Serum-Free medium, 25 μg/mL, replicate 3
# [22] = Serum-Free medium, 50 μg/mL, replicate 1
# [23] = Serum-Free medium, 50 μg/mL, replicate 2
# [24] = Serum-Free medium, 50 μg/mL, replicate 3
# [25] = Serum-Free medium, 100 μg/mL, replicate 1
# [26] = Serum-Free medium, 100 μg/mL, replicate 2
# [27] = Serum-Free medium, 100 μg/mL, replicate 3
compound,measurement,setting,value
"CC[C@H](C)[C@H](NC(=O)[C@H](CCCCN)NC(=O)[C@@H](NC(=O)[C@H](C)NC(=O)[C@H](CC(C)C)NC(=O)[C@H](CCCCN)NC(=O)[C@H](Cc1ccccc1)NC(=O)[C@H](CC(C)C)NC(=O)[C@H](Cc1cnc[nH]1)NC(=O)CNC(=O)[C@H](Cc1ccccc1)NC(=O)[C@@H](N)Cc1ccccc1)[C@@H](C)O)C(=O)N[C@H](C(=O)N1CCC[C@H]1C(=O)N[C@@H](CO)C(=O)N[C@@H](CC(C)C)C(=O)N[C@@H](Cc1ccccc1)C(=O)N[C@@H](CCC(N)=O)C(=O)O)[C@@H](C)CC [Meucin-18, reference compound] (H-FFGHLFKLATKIIPSLFQ-OH)",Hemolysis (%),[1]; technical replicate 1,91.54%
same,Hemolysis (%),[1]; technical replicate 2,95.84%
same,Hemolysis (%),[1]; technical replicate 3,92.43%
"CN[C@H](CC(C)C)C(=O)N[C@H]1C(=O)N[C@@H](CC(N)=O)C(=O)N[C@H]2C(=O)N[C@H]3C(=O)N[C@H](C(=O)N[C@H](C(=O)O)c4cc(O)cc(O)c4-c4cc3ccc4O)[C@H](O)c3ccc(c(Cl)c3)Oc3cc2cc(c3O[C@@H]2O[C@H](CO)[C@@H](O)[C@H](O)[C@H]2O[C@H]2C[C@](C)(N)[C@H](O)[C@H](C)O2)Oc2ccc(cc2Cl)[C@H]1O [vancomycin, reference compound]",Cell shape by scanning electron microscopy,[2],deformation of the cell shape
same,Cytoplasmic accumulation of UMP,[3],accumulated
same,Complex with UMP by CD absorption signatures,[4],a complex was formed
same,Non-covalent complex with UMP by ESI-MS,[5],complex formation
"LL-37: the human AMP with immunomodulatory properties, chemically synthesized, positive control [reference compound]",Cellular variability of HL-60 (%),"[6]; 25 μg/mL, replicate 1",95%
same,Cellular variability of HL-60 (%),"[6]; 25 μg/mL, replicate 2",96%
same,Cellular variability of HL-60 (%),"[6]; 25 μg/mL, replicate 3",103%
same,Cellular variability of HL-60 (%),"[6]; 50 μg/mL, replicate 1",57%
same,Cellular variability of HL-60 (%),"[6]; 50 μg/mL, replicate 2",56%
same,Cellular variability of HL-60 (%),"[6]; 50 μg/mL, replicate 3",64%
same,Cellular variability of HL-60 (%),"[6]; 100 μg/mL, replicate 1",25%
same,Cellular variability of HL-60 (%),"[6]; 100 μg/mL, replicate 2",25%
same,Cellular variability of HL-60 (%),"[6]; 100 μg/mL, replicate 3",26%
same,IL-8,[7]; [10],172 pg/mL
same,IL-8,[7]; [11],166 pg/mL
same,IL-8,[7]; [12],172 pg/mL
same,IL-8,[7]; [13],156 pg/mL
same,IL-8,[7]; [14],129 pg/mL
same,IL-8,[7]; [15],155 pg/mL
same,IL-8,[7]; [16],173 pg/mL
same,IL-8,[7]; [17],195 pg/mL
same,IL-8,[7]; [18],192 pg/mL
same,IL-8,[7]; [19],57 pg/mL
same,IL-8,[7]; [20],41 pg/mL
same,IL-8,[7]; [21],47 pg/mL
same,IL-8,[7]; [22],66 pg/mL
same,IL-8,[7]; [23],57 pg/mL
same,IL-8,[7]; [24],78 pg/mL
same,IL-8,[7]; [25],133 pg/mL
same,IL-8,[7]; [26],122 pg/mL
same,IL-8,[7]; [27],116 pg/mL
same,MCP-1,[8]; [10],486 pg/mL
same,MCP-1,[8]; [11],414 pg/mL
same,MCP-1,[8]; [12],465 pg/mL
same,MCP-1,[8]; [13],538 pg/mL
same,MCP-1,[8]; [14],514 pg/mL
same,MCP-1,[8]; [15],517 pg/mL
same,MCP-1,[8]; [16],545 pg/mL
same,MCP-1,[8]; [17],571 pg/mL
same,MCP-1,[8]; [18],524 pg/mL
same,MCP-1,[8]; [19],431 pg/mL
same,MCP-1,[8]; [20],519 pg/mL
same,MCP-1,[8]; [21],410 pg/mL
same,MCP-1,[8]; [22],583 pg/mL
same,MCP-1,[8]; [23],543 pg/mL
same,MCP-1,[8]; [24],562 pg/mL
same,MCP-1,[8]; [25],459 pg/mL
same,MCP-1,[8]; [26],565 pg/mL
same,MCP-1,[8]; [27],438 pg/mL
"drosomycin: a specific antifungal defensin (DCLSGRYKGPCAVWDNETCRRVCKEEGRSSGHCSPSLKCWCEGC; UniProt P41964 27-70, looked up)",Non-covalent complex with UMP by ESI-MS,[5],not
penicillin [reference compound],Log10 (CFU per lung),"[9]; 8.35 mg/kg i.m. 24 h after intranasal SP D39, lungs at 48 h post‐infection, animal 1",3.6 Log10 (CFU per lung)
same,Log10 (CFU per lung),"[9]; 8.35 mg/kg i.m., animal 2",4.3 Log10 (CFU per lung)
same,Log10 (CFU per lung),"[9]; 8.35 mg/kg i.m., animal 3",3.23 Log10 (CFU per lung)
same,Log10 (CFU per lung),"[9]; 8.35 mg/kg i.m., animal 4",3.28 Log10 (CFU per lung)
same,Log10 (CFU per lung),"[9]; 8.35 mg/kg i.m., animal 5",3.3 Log10 (CFU per lung)
same,Log10 (CFU per lung),"[9]; 16.7 mg/kg i.m., animal 1",1.3 Log10 (CFU per lung)
same,Log10 (CFU per lung),"[9]; 16.7 mg/kg i.m., animal 2",1.48 Log10 (CFU per lung)
same,Log10 (CFU per lung),"[9]; 16.7 mg/kg i.m., animal 3",1.3 Log10 (CFU per lung)
same,Log10 (CFU per lung),"[9]; 16.7 mg/kg i.m., animal 4",4.2 Log10 (CFU per lung)
same,Log10 (CFU per lung),"[9]; 16.7 mg/kg i.m., animal 5",4.68 Log10 (CFU per lung)
same,Log10 (CFU per lung),"[9]; 30 mg/kg i.m., animal 1",3 Log10 (CFU per lung)
same,Log10 (CFU per lung),"[9]; 30 mg/kg i.m., animal 2",1 Log10 (CFU per lung)
same,Log10 (CFU per lung),"[9]; 30 mg/kg i.m., animal 3",2.63 Log10 (CFU per lung)
same,Log10 (CFU per lung),"[9]; 30 mg/kg i.m., animal 4",1 Log10 (CFU per lung)
same,Log10 (CFU per lung),"[9]; 30 mg/kg i.m., animal 5",1 Log10 (CFU per lung)
